These results are taken from patent US20160120949A1, “USES OF IL-12 IN HEMATOPOIETIC IMMUNOTHERAPY (HIT)” (Neumedicines, Inc., priority 2014, published 2016).

Counter-ions that a name gives are not always drawn.

In data set [1] the test system is human immune cells. As to the kind of experiment: Pharmacodynamic response (IFN-γ) in human immune cells in vitro. Type of data set: cell-based.
Data set [2] relates to non-human primates (rhesus monkeys). As to the kind of experiment: Pharmacodynamic response (IFN-γ) in non-human primates in vitro and in vivo. The conditions noted are these: both in vitro and in vivo.
In data set [3] the test system is Irradiated, Unsupported Rhesus Monkeys. As to the kind of experiment: Radiomitigation study in myeloablated, lethally irradiated, unsupported nonhuman primates. In kind it is in vivo. The method, then: FIG. 3: Kaplan-Meier Survival Curves of Irradiated, Unsupported Monkeys Treated with HemaMax™. Pooled HemaMax™ dosing group is shown. No antibiotics were used during the study. One animal with a broken tooth was excluded from the study because of an unrelated death to the study. p<0.05 pooled treatment groups.
FIGS. 4A-4B: Leukocyte (A) and Thrombocyte (B) Counts in Irradiated, Unsupported Rhesus Monkeys Treated With HemaMax™. Three analyses were conducted to assess differences in blood cell counts during the study period.
FIG. 4 describes […] Counts in Irradiated, Unsupported Rhesus Monkeys Treated With HemaMax™. Three analyses were conducted to assess differences in blood cell counts during the study period.

For data set [4] the following is noted: cited from earlier work.
For data set [5] the following is noted: infusion time beyond 60 minutes; cited from earlier work.
The conditions of data set [6]: controlled room temperature 20° C. to 25° C.; cited from earlier work.
The conditions of data set [7]: cited from earlier work. This is another data set of the same source.
Data set [8] has as its system Lin-IL-12Rβ2-cells. As to the kind of experiment: Megacult colony culture with and without IL-12. Type of data set: cell-based. Particulars: megacult medium, 5000 cells/slide. Here is the method:
FIG. 7: Lin-IL-12Rβ2-cells were plated in megacult medium at 5000 cells/slide with and without IL-12.
By way of example, FIG. 7 describes Lin-IL-12RB2-cells were plated in megacult medium at 5000 cells/slide with and without IL-12.

Data set [9] relates to EL4 lymphoma tumor model. As to the kind of experiment: Tumor volume after radiation (625 rad), EL4 lymphoma tumor model. Type of data set: in vivo, mice. Particulars: 625 rad day 1 and second dose day 22, pre, post and pre-post radiation dosing groups, endpoint of tumor volume evaluation. The text has this: (§1) FIGS. 2A-2B: Relative Changes in Tumor Volumes for Vehicle and rMuIL-12 Treatment Groups Following Radiation (625 rad). Changes in tumor volumes over the course of the experiment are shown for the EL4 lymphoma tumor model (A) and the Lewis Lung cancer tumor model (B). Mice in both tumor models were given 625 rad on day 1. Mice in both tumor models were given a second dose of radiation on day 22 following the initial radiation dose.
(§2) FIG. 2 A-B describe Relative Changes in Tumor Volumes for Vehicle and rMuIL-12 Treatment Groups Following Radiation (625 rad). Changes in tumor volumes over the course of the experiment are shown for the EL4 lymphoma tumor model (a) and the Lewis Lung cancer tumor model (b). Mice in both tumor models were given 625 rad on day 1. Mice in both tumor models were given a second dose of radiation on day 22 following the initial radiation dose.

For data set [10], the system named is Lewis Lung tumor. As to the kind of experiment: Lewis Lung tumor model with two rounds of gemcitabine monotherapy, tumor volume. The conditions noted are these: gemcitabine 6.6 mg IP twice, one week apart; differences not statistically significant. Type of data set: in vivo, mouse. Here is the method: The study evaluate the effect of rMuIL-12 on tumor growth in a mouse chemotherapy model was followed up with a second study to examine the growth in the same Lewis Lung model when gemcitabine was used as monotherapy and administered two times, one week apart. rMuIL-12 was also administered as pre-dosing and post-dosing, as described above, and also with a 24 hour post group and on the same day as chemotherapy administration. rMuIL-12 was administered at either both weeks of chemotherapy or only the first week. There were five groups with n=5 for each group. These groups are described below: Chemotherapy once weekly: Gemcitabine only, administered IP, 6.6 mg rMuIL-12 given weekly, three schedules: 24 hours pre-chemotherapy (Pre); Same day as chemotherapy (SD); 24 hours post chemotherapy (Post1=24 hrs-post; Post2=48 hrs-post).
By way of example, FIG. 10 describes Lewis Lung Tumor Volume of Mice Under Monotherapy With Gemcitabine Receiving rMuIL-12. Day 0 is the time of the first chemotherapy. The second chemotherapy administration took place at day 7. […] The differences in growth among groups were not statistically significant.

The subject of data set [11] is Lewis Lung cancer tumor model. As to the kind of experiment: Tumor volume after radiation (625 rad), Lewis Lung cancer tumor model. Type of data set: in vivo, mice. The conditions noted are these: 625 rad day 1 and second dose day 22, rMuIL-12 post-treatment, endpoint of tumor growth evaluation.
Excerpt: as §1, §2

For data set [12], the system named is femoral bone marrow. As to the kind of experiment: Hematopoietic recovery in irradiated mice (TBI 8.0 Gy), femoral bone marrow IHC for IL-12Rβ2. Type of data set: in vivo. The conditions noted are these: 20 ng/mouse subcutaneously post irradiation, 12 days after irradiation. The method, then:
FIGS. 6A-6F: Murine IL-12 Promotes Hematopoietic Recovery in Irradiated Mice. Representative sections of femoral bone marrow from non-irradiated, untreated mice that were stained for IL-12Rβ2 are shown in (A). Animals were subjected to TBI (8.0 Gy) and subsequently received vehicle or rMuIL-12 (20 ng/mouse) subcutaneously at the indicated times post irradiation (B-F). Femoral bone marrow was immunohistochemically stained for IL-12Rβ2 (orange color) 12 days after irradiation. […] Magnification=100×.
By way of example, FIG. 6 describes Murine IL-12 Promotes Hematopoietic Recovery in Irradiated Mice. Representative sections of femoral bone marrow from non-irradiated, untreated mice that were stained for IL-12Rβ2 (orange color) are shown in (a). Animals were subjected to TBI (8.0 Gy) and subsequently received vehicle or rMuIL-12 (20 ng/mouse) subcutaneously at the indicated times post irradiation (b-f). Femoral bone marrow was immunohistochemically stained for IL-12Rβ2 (orange color) 12 days after irradiation.

Data set [13] deals with platelets. As to the kind of experiment: Chemotherapy induced thrombocytopenia (CIT) model, gemcitabine/carboplatin (GC) chemotherapy, platelet counts. In kind it is in vivo, mice. Particulars: for % platelet counts from baseline (average and standard deviation): day 8. Here is the method:
The effect of rMuIL-12 administration in conjunction with gemcitabine/carboplatin chemotherapy (GC) (6.6 mg gemcitabine dose+2 mg carboplatin) was examined. Mice received GC intravenously on day 0.
Pre-dosing: rMuIL-12 was given 24 hours before chemotherapy treatment (n=18)
Post-dosing: rMuIL-12 was administered 48 hours after chemotherapy treatment (n=19) Pre/post dosing: rMuIL-12 was given 24 hours before chemotherapy and 48 hours after chemotherapy (n=13)
Averages of % platelet counts from baseline and standard deviations for each group at day 8 were: […]

Data set [14] has as its system Lewis Lung tumor cells. As to the kind of experiment: Lewis Lung mouse tumor model with concomitant GC chemotherapy, tumor volume. Type of data set: in vivo. Particulars: 20 ng subcutaneously before, after or before/after GC; differences not statistically significant. Here is the method: The effect of rMuIL-12 administration on tumor growth in a mouse tumor chemotherapy model was evaluated. The tumor model used Lewis Lung tumor cells that were subcutaneously injected (100,000 cells) in each mouse. At a given time after tumor inoculation, mice were treated with chemotherapy. The gemcitabine/carboplatin chemotherapy regimen as described above was used and administered IP. rMuIL-12 was administered subcutaneously (20 ng) before, after, or before/after chemotherapy as indicated below.
Pre-dosing (n=16): rMuIL-12 was given 24 hours before chemotherapy treatment,
Post-dosing (n=16): rMuIL-12 was administered 48 hours after chemotherapy treatment
Pre/post dosing (n=16): rMuIL-12 was given 24 hours before chemotherapy and 48 hours after chemotherapy. Control (n=16)
Tumor volume was monitored over time to compared tumor growth in the control compared to rMuIL-12 treated mice. […] The differences among groups in tumor growth were not statistically significant.

The test system of data set [15] is neutrophils, red blood cells and platelets. As to the kind of experiment: Blood recovery after myelosuppressive radiation (625 rad), Lewis lung cancer model. The conditions noted are these: days 14-21. In kind it is in vivo, mice. The text has this:
(§3) FIGS. 1A-1B: Blood Recovery Profiles for Vehicle and rMuIL-12 Administered Before and After Myelosuppresive Radiation (625 rad). Blood cell recovery profiles are shown for the EL4 lymphoma tumor model (A) and the Lewis lung cancer model (B) for neutrophils, red blood cells and platelets. Pre-radiation blood values reflect an average of all animals in both groups before radiation and tumor inoculation. The normal threshold value for murine blood cell counts is indicated by the dashed line.
(§4) Platelet recovery profiles are shown for the EL4 lymphoma tumor model (a) and the Lewis lung cancer model (b).

The test system is the same in data set [16]. As to the kind of experiment: Blood recovery after myelosuppressive radiation (625 rad), EL4 lymphoma tumor model. Type of data set: in vivo, mice. Particulars: days 14-21.
Excerpt: as §3, §4

Setting [17] is: days 12 and 14, 100 ng/kg and 250 ng/kg doses.
[18] abbreviates: rMuIL-12 before and after 625 rad.

For “HemaMax: recombinant human IL-12, heterodimeric glycoprotein of p35 and p40 subunits, 503 amino acids, produced in CHO cells”, in data set [1], the “pharmacodynamic response (interferon-γ [IFN-γ])” value was “potently elicits”. For the same molecule, in [2], the “pharmacodynamic response (interferon-γ [IFN-γ])” value is “potently elicits”. Moreover, in [3] (setting [17]), the “numbers of leukocytes as compared to vehicle” value is recorded as “significantly higher numbers” and the “numbers of thrombocytes as compared to vehicle” value is listed as “significantly higher numbers”. The “monkeys that required a platelet transfusion” value in [3] (lethal radiation NHP study, vehicle 80%) is listed as 25%. Moreover, the “platelet and WBC nadirs” value in data set [3] (lethally irradiated NHP) is on record as “attenuates”. In addition, the survival result in data set [3] (lethally irradiated NHP, no antibiotics, pooled dosing groups) was “increases survival”.
As to `Nc1ccn([C@@H]2O[C@H](CO)[C@@H](O)C2(F)F)c(=O)n1` [Gemzar, 2′-deoy-2′,2′-difluorocytidine monohydrochloride (β-isomer)], in data set [4] (0.9% Sodium Chloride Injection), the “maximum concentration upon reconstitution (solubility considerations)” value is 40 mg/mL. In addition, in data set [4] (ethanol and polar organic solvents), the “solubility in ethanol and polar organic solvents” value is “practically insoluble in ethanol and polar organic”. Also, the solubility in methanol entry in data set [4] (methanol) is reported as “slightly soluble”. Moreover, in [4] (water), the solubility in water entry was “soluble”. In addition, in [5], the “toxicity on prolongation of infusion time beyond 60 minutes” value is on record as “minutes has been shown to increase toxicity”. Besides, the “stability of prepared solutions” value in data set [6] was 24 h. In [7] (animal studies), the acute dermal irritation entry is on record as “not been observed”. Also, in data set [7] (rabbits, dermal), the “rabbits with drug-related systemic toxicities (death, hypoactivity, nasal discharge, shallow breathing) due to dermal absorption” value was “two of three”.

B1: IL-12: heterodimeric cytokine comprising p40 and p35 subunits; species of the IL-12 used in the megacult culture not stated (protein, UniProt P29459 23-219; P29460 23-328, looked up)
Interleukin-12 subunit alpha: RNLPVATPDPGMFPCLHHSQNLLRAVSNMLQKARQTLEFYPCTSEEIDHEDITKDKTSTVEACLPLELTKNESCLNSRETSFITNGSCLASRKTSFMMALCLSSIYEDLKMYQVEFKTMNAKLLMDPKRQIFLDQNMLAVIDELMQALNFNSETVPQKSSLEEPDFYKTKIKLCILLHAFRIRAVTIDRVMSYLNAS
Interleukin-12 subunit beta: IWELKKDVYVVELDWYPDAPGEMVVLTCDTPEEDGITWTLDQSSEVLGSGKTLTIQVKEFGDAGQYTCHKGGEVLSHSLLLLHKKEDGIWSTDILKDQKEPKNKTFLRCEAKNYSGRFTCWWLTTISTDLTFSVKSSRGSSDPQGVTCGAATLSAERVRGDNKEYEYSVECQEDSACPAAEESLPIEVMVDAVHKLKYENYTSSFFIRDIIKPDPPKNLQLKPLKNSRQVEVSWEYPDTWSTPHSYFSLTFCVQVQGKSKREKKDRVFTDKTSATVICRKNASISVRAQDRYYSSSWSEWASVPCS
With B1, the “colony size in comparison to media alone” value in data set [8] is “larger colonies”.

B2: rMuIL-12: murine recombinant IL-12, the murine counterpart to HemaMax (protein, UniProt P43431 23-215; P43432 23-335, looked up)
Interleukin-12 subunit alpha: RVIPVSGPARCLSQSRNLLKTTDDMVKTAREKLKHYSCTAEDIDHEDITRDQTSTLKTCLPLELHKNESCLATRETSSTTRGSCLPPQKTSLMMTLCLGSIYEDLKMYQTEFQAINAALQNHNHQQIILDKGMLVAIDELMQSLNHNGETLRQKPPVGEADPYRVKMKLCILLHAFSTRVVTINRVMGYLSSA
Interleukin-12 subunit beta: MWELEKDVYVVEVDWTPDAPGETVNLTCDTPEEDDITWTSDQRHGVIGSGKTLTITVKEFLDAGQYTCHKGGETLSHSHLLLHKKENGIWSTEILKNFKNKTFLKCEAPNYSGRFTCSWLVQRNMDLKFNIKSSSSSPDSRAVTCGMASLSAEKVTLDQRDYEKYSVSCQEDVTCPTAEETLPIELALEARQQNKYENYSTSFFIRDIIKPDPPKNLQMKPLKNSQVEVSWEYPDSWSTPHSYFSLKFFVRIQRKKEKMKETEEGCNQKGAFLVEKTSTEVQCKGGNVCVQAQDRYYNSSCSKWACVPCRVRS
B2: the “tumor growth % T/C” value in data set [9] and in data set [11] was under 50% throughout. Moreover, in data set [10], the “tumor growth rate (tumor volume)” value is reported as “did not increase the tumor growth rate”. The “hematopoietic recovery in femoral bone marrow” value in data set [12] is listed as “hematopoietic reconstitution”. Also, in [13] (all rMuIL-12 treated groups), the “animals with a decrease in platelets of more than 33%” value is 0 out of 50. In addition, the “% platelet counts from baseline (average and standard deviation)” value worked out at 110±37% in [13] (Post-dosing: 48 hours after chemotherapy); 79±34% in data set [13] (Pre-dosing: 24 hours before chemotherapy); 111±33% in [13] (Pre/Post dosing: 24 hours before and 48 hours after chemotherapy). Also, the “mice with platelet levels that dropped one-third of baseline level or more” value in [13] (rMuIL-12 prior to, after or both prior to and after chemotherapy, 8 days after chemotherapy) came out at 0%. For the same molecule, the “tumor growth (tumor volume)” value in data set [14] is on record as “did not increase tumor growth”. Also, the “platelet counts as compared to the vehicle control” value in [15] (625 rad) and in data set [16] (625 rad) was “statistically significant improvements” each time. Also, the “blood cell counts as compared to the vehicle control” value in data set [15] (setting [18]) and in data set [16] (setting [18]) was “statistically significant improvements” in each case.
